Experimental data from US20260217698A1 (BEYANG THERAPEUTICS CO., LTD., priority 2022, published 2026).

How the values were obtained:
EGFR = biological target: T1, EGFR (Homo sapiens, UniProt P00533); test: Kinase inhibition, Mobility Shift Assay/IMAP, EGFR; assay type: biochemical
T1 construct: purchased Carna 08-115
Description: (§1) This assay directly monitored the ability of compounds to inhibit kinase phosphorylation by measuring non-phosphorylated and phosphorylated substrates in kinase reactions by using Mobility Shift Assays/IMAP™ analysis.
(§2) Read the conversion ratio data on CaliperEZ Reader II. Convert conversion rates into inhibition ratio data.
(§3) “Min” indicates the readout of the control well without the addition of enzymes; and “Max” indicates the readout of the control well with the addition of DMSO Fit IC50 values with XL Fit excel add-in version […].
(§4) X indicates the log value of compound concentration, and Y indicates the inhibition ratio (% inhibition).

VEGFR2 = VEGFR2 (Homo sapiens, UniProt P35968); test: Kinase inhibition, Mobility Shift Assay/IMAP, VEGFR2; assay type: biochemical; design: purchased Carna 08-191
Chain of VEGFR2 (P35968 790-1356 limits assumed): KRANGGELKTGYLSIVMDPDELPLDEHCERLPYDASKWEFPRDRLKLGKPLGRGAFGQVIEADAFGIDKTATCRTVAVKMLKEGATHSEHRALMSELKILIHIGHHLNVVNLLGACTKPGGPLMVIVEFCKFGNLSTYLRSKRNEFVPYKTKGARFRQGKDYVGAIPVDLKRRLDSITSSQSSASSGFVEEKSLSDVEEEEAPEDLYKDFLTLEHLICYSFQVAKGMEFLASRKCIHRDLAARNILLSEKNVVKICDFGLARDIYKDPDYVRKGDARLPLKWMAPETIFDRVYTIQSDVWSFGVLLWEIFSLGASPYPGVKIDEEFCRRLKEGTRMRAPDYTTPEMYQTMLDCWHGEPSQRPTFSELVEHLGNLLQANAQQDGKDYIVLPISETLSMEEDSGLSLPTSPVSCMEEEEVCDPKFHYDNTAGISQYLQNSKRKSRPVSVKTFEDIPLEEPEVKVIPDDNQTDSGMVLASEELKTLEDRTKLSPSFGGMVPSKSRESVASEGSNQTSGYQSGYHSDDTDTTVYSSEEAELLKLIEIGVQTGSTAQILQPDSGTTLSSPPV
Description: as §1, §2, §3, §4

TIE2 = biological target: T2, TIE2 (Homo sapiens, UniProt Q02763); test: Kinase inhibition, Mobility Shift Assay/IMAP, TIE2; assay type: biochemical
T2 construct: purchased BPS 40270
T2 sequence (Q02763 23-1124): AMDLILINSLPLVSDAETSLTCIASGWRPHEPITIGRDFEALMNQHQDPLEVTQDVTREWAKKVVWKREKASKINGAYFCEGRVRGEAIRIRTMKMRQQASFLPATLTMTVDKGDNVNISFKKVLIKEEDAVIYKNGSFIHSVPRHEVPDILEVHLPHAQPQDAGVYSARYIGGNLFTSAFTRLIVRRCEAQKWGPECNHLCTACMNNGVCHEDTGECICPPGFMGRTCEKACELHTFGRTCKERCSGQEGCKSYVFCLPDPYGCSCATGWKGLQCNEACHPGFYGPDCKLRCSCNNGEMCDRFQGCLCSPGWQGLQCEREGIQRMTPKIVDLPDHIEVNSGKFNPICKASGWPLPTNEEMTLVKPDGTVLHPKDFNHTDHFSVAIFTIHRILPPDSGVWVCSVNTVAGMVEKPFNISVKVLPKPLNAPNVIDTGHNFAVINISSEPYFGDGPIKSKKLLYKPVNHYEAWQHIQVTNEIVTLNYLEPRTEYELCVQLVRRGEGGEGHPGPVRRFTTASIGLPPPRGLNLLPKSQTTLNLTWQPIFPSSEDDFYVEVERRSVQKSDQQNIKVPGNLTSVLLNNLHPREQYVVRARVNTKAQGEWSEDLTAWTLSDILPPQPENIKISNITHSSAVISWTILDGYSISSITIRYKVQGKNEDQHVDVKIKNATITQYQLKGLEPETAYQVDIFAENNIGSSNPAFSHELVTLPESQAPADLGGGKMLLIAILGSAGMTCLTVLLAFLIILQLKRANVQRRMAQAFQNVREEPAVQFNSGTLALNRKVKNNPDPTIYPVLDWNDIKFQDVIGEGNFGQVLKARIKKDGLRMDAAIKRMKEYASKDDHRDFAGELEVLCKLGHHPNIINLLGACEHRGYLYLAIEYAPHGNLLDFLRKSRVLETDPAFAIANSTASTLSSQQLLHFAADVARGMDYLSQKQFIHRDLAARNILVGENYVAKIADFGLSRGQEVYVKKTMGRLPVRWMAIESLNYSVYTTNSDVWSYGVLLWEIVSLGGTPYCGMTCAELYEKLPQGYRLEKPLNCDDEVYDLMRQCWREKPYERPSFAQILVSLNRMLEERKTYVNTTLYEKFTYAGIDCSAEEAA
Description: as §1, §2, §3, §4

melanin = test: Binding capacity of compounds to melanin; assay type: in vitro ADME, cuttlefish (Sepia officinalis); details: cuttlefish (Sepia officinalis), melanin suspension (1 mg/mL); 1 mg/mL melanin in PBS pH 7.4, 2 μM compound, 2 h at 37° C.; read-out: Fu % (percentage of free drug)
Description: Pigmented eye tissues contain melanin in intracellular melanosomes. Drugs bind to melanin to varying degrees, ranging from non-binding to extensive binding. Therefore, melanin binding is an important feature that affects drug delivery and biodistribution in the eye. The binding capacity of the compound to the melanin must be considered in the development of ophthalmic drugs.
Melanin was derived from the melanin of cuttlefish (Sepia officinalis) and was commercially available from Sigma Aldrich (St Louis, MO).
First, prepare 1 mg/mL melanin suspension with PBS (pH 7.4). As a washing step for the matrix, centrifuge the suspended particles for 5 min at 3000 rpm. Resuspend the resulting particles in a fresh PBS buffer, heat to 37° C. over continuous shaking and incubate it for 1 h. Accurately pipette 2 μL of the test stock solution (0.1 mM) into 98 μL of melanin suspension (1 mg/mL) to achieve a final incubation concentration of 2 μM. Similarly, accurately pipette 2 μL of the stock solution (0.1 mM) to 98 μL of PBS buffer (containing 0.1% BSA) as a blank control sample. Incubate the samples in a shaker (80-90 rpm) for 2 h at 37° C. Then, centrifuge the samples at room temperature. Pipette 50 μL of the supernatant and add 50 μL of precipitant (containing an internal standard). After protein precipitation of all the above samples, centrifuge the samples to collect the supernatants, dilute the supernatants with water (if necessary) and inject them for analysis. At the same time, measure the positive controls, including the high-binding compounds Sunitinib and chloroquine and the low-binding compound celecoxib. Establish an LC-MS/MS method for determining compound concentrations, and calibrate the peak area ratio of analyte/internal standard (Analyte/AIS) in the measured sample by the dilution factor to take it as an alternative concentration for the sample for data processing. The binding rate (Fb) of a compound in melanin was calculated as: […]
Ctest was the concentration of the compound in the melanin-incubated sample or the peak area ratio of the test compound to the internal standard. Ccontrol was the concentration of the compound in the blank control sample or the peak area ratio of the test compound to the internal standard. […]

T1 sequence (P00533 669-1210 limits assumed): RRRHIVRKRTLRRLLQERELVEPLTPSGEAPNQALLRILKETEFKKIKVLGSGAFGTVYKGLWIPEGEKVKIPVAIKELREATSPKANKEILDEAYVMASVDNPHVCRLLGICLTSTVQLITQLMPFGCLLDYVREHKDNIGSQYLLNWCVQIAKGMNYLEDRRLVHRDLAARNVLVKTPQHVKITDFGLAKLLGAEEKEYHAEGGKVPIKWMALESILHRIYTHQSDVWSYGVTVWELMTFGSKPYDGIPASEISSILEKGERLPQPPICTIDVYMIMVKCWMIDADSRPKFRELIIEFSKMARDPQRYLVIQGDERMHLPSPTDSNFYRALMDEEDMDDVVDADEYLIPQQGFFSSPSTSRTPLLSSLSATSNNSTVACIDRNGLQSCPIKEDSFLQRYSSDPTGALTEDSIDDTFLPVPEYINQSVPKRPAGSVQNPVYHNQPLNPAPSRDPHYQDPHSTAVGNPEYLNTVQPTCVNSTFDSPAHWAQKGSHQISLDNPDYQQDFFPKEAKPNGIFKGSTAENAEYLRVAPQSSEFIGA

| SMILES | IC50 (EGFR) [nM] | IC50 (VEGFR2) [nM] | IC50 (TIE2) [nM] | fraction unbound at 2 h, 2 μM (melanin) |
| --- | --- | --- | --- | --- |
| COc1ccc(COc2nsc(NC(=O)NCCCCN3CCCC3)c2C(N)=O)cn1 [Compound T033] | 54900 | 51.9 | 1460 | – |
| NC(=O)c1c(OCc2ccc3c(c2)CCO3)nsc1NC(=O)NCCCCN1CCCC1 [Compound T044, 3-((2,3-dihydrobenzofuran-5-yl)methoxy)-5-(3-(4-(pyrrolidin-1-yl)butyl)ureido)isothiazole-4-carboxamide] | 10000 | 128 | 1640 | – |
| NC(=O)c1c(OCc2c(F)cc(Br)cc2F)nsc1Nc1cncc(OCCN2CCCC2)c1 [Compound T045, 3-((4-bromo-2,6-difluorobenzyl)oxy)-5-((5-(2-(pyrrolidin-1-yl)ethoxy)pyridin-3-yl)amino)isothiazole-4-carboxamide] | – | 22.1 | 230 | – |
| NC(=O)c1c(OCc2cc(Cl)c3cncn3c2)nsc1NC(=O)NCCCCN1CCCC1 [Compound T051, 3-((8-chloroimidazo[1,5-a]pyridin-6-yl)methoxy)-5-(3-(4-(pyrrolidin-1-yl)butyl)ureido)isothiazole-4-carboxamide] | – | – | 3210 | – |
| COc1cc(COc2nsc(NC(=O)NCCCCN3CC[C@H](F)C3)c2C(N)=O)cc(OC)c1 [Compound T062, (S)-3-((3,5-dimethoxybenzyl)oxy)-5-(3-(4-(3-fluoropyrrolidin-1-yl)butyl)ureido)isothiazole-4-carboxamide] | > 60000 | 58.8 | – | 0.0195 |
| NC(=O)c1c(OCc2cccc(-n3cccn3)c2)nsc1NC(=O)NCCCCN1CCCC1 [Compound T068, 3-((3-(1H-pyrazol-1-yl)benzyl)oxy)-5-(3-(4-(pyrrolidin-1-yl)butyl)ureido)isothiazole-4-carboxamide] | 4410 | 171 | 1610 | – |
| CN1CCN(CCCNC(=O)Nc2snc(OCc3cccc(C(=O)C4CC4)c3)c2C(N)=O)CC1 [Compound T086, 3-((3-(cyclopropanecarbonyl)benzyl)oxy)-5-(3-(3-(4-methylpiperazin-1-yl)propyl)ureido)isothiazole-4-carboxamide] | 6830 | – | 895 | – |
| CCOc1ccc(F)c(COc2nsc(NC(=O)NCCCCN3CCCC3)c2C(N)=O)c1 [Compound T096, 3-((5-ethoxy-2-fluorobenzyl)oxy)-5-(3-(4-(pyrrolidin-1-yl)butyl)ureido)isothiazole-4-carboxamide] | – | – | – | 0.0792 |
| NC(=O)c1c(OCc2ccc3c(c2)OCCC3)nsc1NC(=O)NCCCCN1CCCC1 [Compound T097, 3-(chroman-7-ylmethoxy)-5-(4-pyrrolidin-1-ylbutylcarbamoylamino)isothiazole-4-carboxamide] | – | – | – | 0.0817 |
| NC(=O)c1c(OCc2cc(C(=O)NC3CC3)ccc2F)nsc1NC(=O)NCCCCN1CC[C@H](O)C1 [Compound T099] | – | – | – | 0.0884 |
| NC(=O)c1c(OCc2cc(C(=O)NC3CC3)ccc2F)nsc1NC(=O)NCCCN1CC[C@H](O)C1 [Compound T105, 3-[[5-(cyclopropylcarbamoyl)-2-fluoro-phenyl]methoxy]-5-[3-[(3S)-3-hydroxypyrrolidin-1-yl]propylcarbamoylamino]isothiazole-4-carboxamide] | 11900 | 1.6 | – | 0.0316 |

Further lines, results first:

| IC50 (EGFR) [nM] | IC50 (VEGFR2) [nM] | IC50 (TIE2) [nM] | fraction unbound at 2 h, 2 μM (melanin) | SMILES |
| --- | --- | --- | --- | --- |
| 20100 | 1.64 | – | 0.0172 | NC(=O)c1c(OCc2cc(C(=O)NC3CC3)ccc2F)nsc1NC(=O)NCCCN1CC[C@@H](O)C1 [Compound T106, 3-[[5-(cyclopropylcarbamoyl)-2-fluoro-phenyl]methoxy]-5-[3-[(3R)-3-hydroxypyrrolidin-1-yl]propylcarbamoylamino]isothiazole-4-carboxamide] |
| 7450 | 13.8 | – | 0.0435 | COc1ccc(F)c(COc2nsc(NC(=O)NCCC3CCN(C)CC3)c2C(N)=O)c1F [Compound T109, 3-[(2,6-difluoro-3-methoxy-phenyl)methoxy]-5-[2-(1-methyl-4-piperidyl)ethylcarbamoylamino]isothiazole-4-carboxamide] |
| – | – | – | 0.0485 | CN1CCN(CCCNC(=O)Nc2snc(OCc3cccc(C(=O)CC4CC4)c3)c2C(N)=O)CC1 [Compound T110, 3-[[3-(2-cyclopropylacetyl)phenyl]methoxy]-5-[3-(4-methylpiperazin-1-yl)propylcarbamoylamino]isothiazole-4-carboxamide] |
| > 60000 | 2.54 | – | 0.0207 | COc1cc(OC)c(F)c(COc2nsc(NC(=O)NCCCN3CCN(C)CC3)c2C(N)=O)c1F [Compound T117, 3-[(2,6-difluoro-3,5-dimethoxy-phenyl)methoxy]-5-[3-(4-methylpiperazin-1-yl)propylcarbamoylamino]isothiazole-4-carboxamide] |
| > 60000 | 1.8 | – | 0.0285 | COc1cc(OC)c(F)c(COc2nsc(NC(=O)NCCCCN3CC[C@H](O)C3)c2C(N)=O)c1F [Compound T136, 3-[(2,6-difluoro-3,5-dimethoxy-phenyl)methoxy]-5-[4-[(3S)-3-hydroxypyrrolidin-1-yl]butylcarbamoylamino]isothiazole-4-carboxamide] |
| > 60000 | 2.1 | – | 0.0446 | COc1cc(OC)c(F)c(COc2nsc(NC(=O)NCCCCN3CCCC3)c2C(N)=O)c1F [Compound T137, 3-[(2,6-difluoro-3,5-dimethoxy-phenyl)methoxy]-5-(4-pyrrolidin-1-ylbutylcarbamoylamino)isothiazole-4-carboxamide] |
| > 60000 | 2.6 | – | 0.0398 | COc1cc(OC)c(F)c(COc2nsc(NC(=O)NCCCC3CCCN3C)c2C(N)=O)c1F (stereo not shown) [Compound T138, 3-[(2,6-difluoro-3,5-dimethoxy-phenyl)methoxy]-5-[3-(1-methylpyrrolidin-2-yl)propylcarbamoylamino]isothiazole-4-carboxamide] |
| 15500 | 0.44 | – | 0.0726 | CN1CCN(CCCNC(=O)Nc2snc(OCc3cc(C(=O)NC4CC4)ccc3Cl)c2C(N)=O)CC1 [Compound T140, 3-[[2-chloro-5-(cyclopropylcarbamoyl)phenyl]methoxy]-5-[3-(4-methylpiperazin-1-yl)propylcarbamoylamino]isothiazole-4-carboxamide] |
| > 60000 | – | > 60000 | – | O=C(NCCCN1CC[C@H](F)C1)Nc1snc(OCc2cc(C(=O)NC3CC3)ccc2F)c1C(=O)O [Compound T155, 3-[[5-(cyclopropylcarbamoyl)-2-fluoro-phenyl]methoxy]-5-[3-[(3S)-3-fluoropyrrolidin-1-yl]propylcarbamoylamino]isothiazole-4-carboxylic acid] |
| – | 1.41 | 4270 | – | NC(=O)c1c(OCc2ccc(F)c(C(=O)NC3CC3)c2)nsc1NC(=O)NCCCN1CCNCC1 [Compound T160, 3-[[3-(cyclopropylcarbamoyl)-4-fluoro-phenyl]methoxy]-5-(3-piperazin-1-ylpropylcarbamoylamino)isothiazole-4-carboxamide] |
| – | 3.05 | 7360 | – | N#CCCNC(=O)Nc1snc(OCc2cc(C(=O)NC3CC3)ccc2F)c1C(N)=O [Compound T162, 5-(2-cyanoethylcarbamoylamino)-3-[[5-(cyclopropylcarbamoyl)-2-fluoro-phenyl]methoxy]isothiazole-4-carboxamide] |
| 29100 | – | 5850 | – | NC(=O)c1c(OCc2cc(C(=O)O)ccc2F)nsc1NC(=O)NCCCN1CC[C@H](F)C1 [Compound T171, 3-[[4-carbamyl-5-[3-[(3S)-3-fluoropyrrolidin-1-yl]propylcarbamylamino]isothiazol-3-yl]oxymethyl]-4-fluoro-benzoic acid] |
| – | 2.6 | 3260 | – | NC(=O)c1c(OCc2cc(C(=O)NC3CC3)ccc2F)nsc1NC(=O)NCCC(=O)O [Compound T172, 3-[[4-carbamoyl-3-[[5-(cyclopropylcarbamoyl)-2-fluoro-phenyl]methoxy]isothiazol-5-yl]carbamoylamino]propanoic acid] |
